The values that follow come from patent US20180282271A1, “ANTIBIOTIC AMINO ACID MIMETICS” (priority 2017, published 2018).

The structures appear in SMILES notation. Converted amounts (≈) assume the structure as drawn.

Assay [1] deals with Enterococcus faecalis MMX 101/ATCC 29212. In words: Broth microdilution MIC, standard CLSI media, ATCC QC organism. It counts as cell-based. On the procedure: (§1) The test organisms were originally received from clinical sources or from the American Type Culture Collection (ATCC, Manassas, Va.). When received, the organisms were subcultured onto an appropriate agar medium. Following incubation, colonies were harvested from the plate and a cell suspension was prepared in broth containing cryoprotectant and frozen at −80° C. Prior to the assay, a frozen vial of the culture was partially thawed and the contents were streaked for isolation onto an appropriate growth medium. The agar plates were incubated overnight at 35° C. Test organisms included staphylococci and enterococci (Table 1), streptococci (Table 2), Enterobacteriaceae (Table 3), lactose non-fermenting Gram-negative bacilli (Table 4), Haemophilus influenzae (Table 5), Neisseria gonorrhoeae (Table 5), and Clostridium difficile (Table 6).
(§2) The standard CLSI broth medium was employed for the purposes of quality control of the comparator drugs for the MIC assay and was only used for testing of relevant ATCC quality control isolates as established by CLSI (1-5).
(§3) MIC values were determined using a broth microdilution method as recommended by CLSI (1-5).
(§4) Column 1 was filled with 300 μL of the investigational and control agents at the appropriate stock concentration (40× of the highest test concentration). The Biomek 2000 was used to make eleven 2-fold serial dilutions to create a “mother plate.” The wells of column 12 contained no drug and served as growth control wells.
(§5) The daughter plates were prepared on the Biomek FX instrument which transferred 5 μL of drug solution from each well of the mother plate to the corresponding well of each daughter plate in a single step.
(§6) Standardized inoculum of each organism was prepared per CLSI methods (1-5). The inoculum for each organism was dispensed into sterile reservoirs divided by length (Beckman Coulter), and the Biomek 2000 was used to inoculate the plates. Daughter plates were placed on the Biomek 2000 work surface reversed so that inoculation took place from low to high drug concentration. The Biomek 2000 delivered 10 PL of standardized inoculum into each well resulting in a target inoculum size of approximately 5×10^5 CFU/mL. The wells of the daughter plates ultimately contained 185 μL of media, 5 μL of drug solution at 40× the test concentration, and 10 μL of bacterial inoculum prepared in media.
(§7) Plates were stacked 3-4 high, covered with a lid on the top plate, placed into plastic bags, and incubated at 35° C. under the appropriate conditions, with C. difficile incubated anaerobically. Plates were viewed post-incubation at 18-24 hr and again at 48 hr from the bottom using a plate viewer. […] MICs were read where visible growth of the organism was inhibited.
In general terms: Broth dilution looks for growth in wells or tubes with falling amounts of substance.

Assay [2] concerns Escherichia coli MMX 102/ATCC 25922. Described as above. Format: cell-based. As to the method: as §1, §2, §3, §4, §5, §6, §7
In assay [3] the test system is Haemophilus influenzae MMX 1224/ATCC 49247. The description is as above. Format: cell-based. As to the method: as §1, §2, §3, §4, §5, §6, §7
In assay [4] the test system is Neisseria gonorrhoeae MMX 683/ATCC 49226. The assay is described as above. It counts as cell-based. On the procedure:
as §1, §2, §3, §4, §5, §6, §7

Assay [5] concerns Pseudomonas aeruginosa MMX 103/ATCC 27853. Described as above. Format: cell-based. On the procedure:
as §1, §2, §3, §4, §5, §6, §7

In assay [6] the test system is Staphylococcus aureus MMX 100/ATCC 29213. The description is as above. It counts as cell-based. As to the method: as §1, §2, §3, §4, §5, §6, §7
Assay [7] deals with Streptococcus pneumoniae MMX 1195/ATCC 49619. Described as above. It counts as cell-based. As to the method: as §1, §2, §3, §4, §5, §6, §7
In assay [8] the test system is Staphylococcus aureus MMX 100/ATCC 29213. To be noted: CLSI QC ranges shown in parenthesis; cited from earlier work.
The subject of assay [9] is Escherichia coli MMX 102/ATCC 25922. The settings on record: CLSI QC ranges shown in parenthesis; cited from earlier work.
Assay [10] concerns Pseudomonas aeruginosa MMX 103/ATCC 27853. The settings on record: CLSI QC ranges shown in parenthesis; cited from earlier work.
The test system of assay [11] is Haemophilus influenzae MMX 1224/ATCC 49247. The settings on record: CLSI QC ranges shown in parenthesis; cited from earlier work.
Assay [12] has as its system Clostridium difficile MMX 4381/ATCC 700057. In words: Broth microdilution MIC, standard CLSI media, ATCC QC organism. Format: cell-based. To be noted: Clostridioides difficile, ATCC700057, 48 hr results. On the procedure: as §1, §2, §3, §4, §5, §6, §7
The test system of assay [13] is Enterococcus faecalis MMX 101/ATCC 29212. To be noted: CLSI QC ranges shown in parenthesis; cited from earlier work.
For assay [14], the system named is Streptococcus pneumoniae MMX 1195/ATCC 49619. The settings on record: CLSI QC ranges shown in parenthesis; cited from earlier work.

As for `CO/N=C(\C(=O)N[C@@H]1C(=O)N2C(C(=O)[O-])=C(C[N+]3(C)CCCC3)CS[C@H]12)c1csc(N)n1` [FEP, cefepime], the MIC was above 64 µg/mL in [1] (ATCC29212, 24 hr results); above 64 µg/mL in assay [1] (ATCC29212, 48 hr results); 0.25 µg/mL (≈ 0.52 µM) in [2] (ATCC25922, 24 hr results); 0.25 µg/mL (≈ 0.52 µM) in assay [2] (ATCC25922, 48 hr results); 0.25 µg/mL (≈ 0.52 µM) in [3] (ATCC49247, 24 hr results); 0.25 µg/mL (≈ 0.52 µM) in assay [3] (ATCC49247, 48 hr results). The MIC in assay [4] (ATCC49226, 24 hr results) came to 16 µg/mL (≈ 33.3 µM); in [4] (ATCC49226, 48 hr results), 32 µg/mL (≈ 66.6 µM); in assay [5] (ATCC27853, 24 hr results) it was 1 µg/mL (≈ 2.08 µM); in [5] (ATCC27853, 48 hr results), 2 µg/mL (≈ 4.16 µM); in assay [6] (ATCC29213, 24 hr results) it was 16 µg/mL (≈ 33.3 µM); in assay [6] (ATCC29213, 48 hr results), 16 µg/mL (≈ 33.3 µM). The MIC in assay [7] (ATCC49619, 24 hr results) was determined as 0.5 µg/mL (≈ 1.04 µM); in [7] (ATCC49619, 48 hr results) it was 0.5 µg/mL (≈ 1.04 µM). Also, the “CLSI QC range of MIC” value in assay [8] is reported as “(4-16) μg/mL”; in assay [9], “(0.06-0.5) μg/mL”; in assay [10] it was “(1-4) μg/mL”; in assay [11], “(0.12-1) μg/mL”.

As for `C[C@@H](O)[C@H]1C(=O)N2C(C(=O)O)=C(S[C@@H]3CN[C@H](C(=O)N(C)C)C3)[C@H](C)[C@H]12` [MEM, meropenem], the MIC in [12] is 1 µg/mL (≈ 2.61 µM); in assay [1] (ATCC29212, 24 hr results), 4 µg/mL (≈ 10.4 µM); in [1] (ATCC29212, 48 hr results) it was above 4 µg/mL; in [2] (ATCC25922, 24 hr results), 0.03 µg/mL (≈ 0.0782 µM); in [2] (ATCC25922, 48 hr results) it was 0.03 µg/mL (≈ 0.0782 µM); in assay [3] (ATCC49247, 24 hr results) it was 0.06 µg/mL (≈ 0.156 µM). Also, the MIC was 0.06 µg/mL (≈ 0.156 µM) in assay [3] (ATCC49247, 48 hr results); above 4 µg/mL in [4] (ATCC49226, 24 hr results); above 4 µg/mL in [4] (ATCC49226, 48 hr results); 0.5 µg/mL (≈ 1.3 µM) in [5] (ATCC27853, 24 hr results); 1 µg/mL (≈ 2.61 µM) in assay [5] (ATCC27853, 48 hr results); 0.06 µg/mL (≈ 0.156 µM) in assay [6] (ATCC29213, 24 hr results). In addition, the MIC in assay [6] (ATCC29213, 48 hr results) turned out to be 0.12 µg/mL (≈ 0.313 µM); in [7] (ATCC49619, 24 hr results), 0.06 µg/mL (≈ 0.156 µM); in [7] (ATCC49619, 48 hr results), 0.06 µg/mL (≈ 0.156 µM). In addition, the “CLSI QC range of MIC” value was “(0.03-0.12) μg/mL” in assay [8]; “(2-8) μg/mL” in assay [13]; “(0.03-0.25) μg/mL” in assay [14]; “(0.008-0.06) μg/mL” in assay [9]; “(0.25-1) μg/mL” in assay [10].
